Experiments:
DR4 = experiment: Association of exogenous MADD with DR4 in HEK293 cells (immunoprecipitation); format: cell-based
Description: (A) Phosphorylation status of MADD could influence its binding to DR4. HEK293 cells were transfected with wtMADD or MADD mutants. 36 h after transfection, the cells were harvested for immunoprecipitation using an anti-DR4 antibody followed by immunoblotting using an anti-YFP antibody to detect exogenous MADD. The membrane was reprobed with an anti-DR4 antibody to show the protein loading. (B) PI3K can influence the association of exogenous MADD with DR4. HEK293 cells were transfected with wtMADD. Twenty four hours after transfection, the cells were serum starved for 20 h. Further, they were treated with LY (10 μM) for 1 h, IGF-1 (150 ng/ml) for 20 minutes. Immunoprecipitation using an anti-DR4 antibody was followed by immunoblotting using anti-YFP or anti-DR4 antibody. (C) Akt can influence exogenous MADD association with DR4. HEK293 cells were co-transfected with wtMADD along with DN-Akt or the empty vector pcDNA3.1 (pcDNA). Thirty six hours after transfection, the cells were harvested for immunoprecipitation using anti-DR4 antibody followed by immunoblotting with an anti-YFP or an anti-DR4 antibody. (D) PI3K can influence the association of endogenous MADD with DR4. HeLa cells were serum starved for 20 h, then treated with LY (10 μM) for 1 h, IGF-1 (150 ng/ml) for 20 minutes. Immunoprecipitation using an anti-DR4 antibody was followed by immunoblotting with an anti-MADD or an anti-DR4 antibody. (E) Akt can influence the association of endogenous MADD with DR4. HeLa cells were transfected with DN-Akt or pcDNA. Thirty six hours after transfection, the cells were collected for immunoprecipitation using an anti-DR4 antibody followed by immunoblotting with an anti-MADD antibody.
MADD can bind to DR4 and thereby block the activation of the extrinsic apoptotic pathway. […] Stimulation of PI3K by IGF-1 increased, while inhibition by LY reduced, the association between wtMADD and DR4 (FIG. 15B). […] This interaction was reduced in the presence of LY (FIG. 15D) or DN-Akt (FIG. 15E).
Immunoprecipitation. Immunoprecipitations were performed using standard procedures. The samples were precleared with 10% (vol/vol) Protein-A agarose (Roche) for 1 h on a rocking platform. Specific antibodies were added and rocked for 1 h. Immunoprecipitates were captured by incubating with 10% (vol/vol) Protein-A agarose for an hour. The agarose beads were spun down and washed three times with NET/NP40 buffer (150 mM NaCl, 2 mM EDTA, 50 mM Tris-HCl pH 7.5, 0.1% NP-40). The antigens were released and denatured by adding SDS sample buffer. Immunoblots were prepared and analysed as described above.

MADD = experiment: Phosphorylation of exogenous wtMADD in HEK293 cells (anti-phospho antibodies); format: cell-based; conditions: HEK293 transfected with wtMADD; LY 10 μM 1 h, IGF-1 150 ng/ml 20 minutes
Description: (A) In vitro phosphorylation of rMADD by Akt. GST-wtMADD or -MADD mutants were expressed in bacteria, purified, and then incubated with rAkt and γ[^32P] ATP. After 1 h incubation at 30° C., the products were resolved on SDS-PAGE and ^32P-labeled proteins were visualized by autoradiography. (B) MADD is labeled by [^32P]orthophosphate in vivo. HEK293 cells were transfected with wtMADD or MADD mutant constructs. Twenty-four hours after transfection cells were incubated with 0.3 mCi/ml [32P]orthophosphate for 6 h. MADD was immunoprecipitated with an anti-YFP antibody. The precipitated MADD was separated by SDS-PAGE, transferred to a nitrocellulose membrane, and subjected to autoradiography. Loaded MADD was visualized by staining the same membrane with an anti-YFP antibody. (C) HEK293 cells were transfected with cDNAs for wtMADD or MADD mutants and. 36 h later the cells were harvested for immunoblotting using the anti-phospho-S-70, -T-173 or -T-1041 antibodies. An anti-YFP antibody was used to detect exogenous MADD. (D) HEK293 cells were transfected with wtMADD and 24 hours later cells were serum starved for 20 h. Subsequently, they were treated with LY (10 μM) for 1 h and/or IGF-1 (150 ng/ml) for 20 minutes. The cell lysates were immunoblotted and probed with anti phospho-specific antibodies or an anti-YFP antibody. […]

Structure (SMILES): O=c1cc(N2CCOCC2)oc2c(-c3ccccc3)cccc12 [LY]
- Association of exogenous MADD with DR4 (DR4): reduced
- S70, T173 and T1041 phosphorylation levels of MADD (MADD): decreased

Source: US7910723B2, “IG20 splice variants therapeutics for cancer” (The Board of Trustees of the University of Illinois, priority 2006, dated 2011)
